Data on 35 molecules can be found in patent US8513260B2, “Pyrazinylpyrazoles” (Bayer CropScience AG, priority 2009, dated 2013).

Like-named read-outs stand apart in the source and are kept apart here.

The nature of data set [1]: logP by HPLC on reversed-phase columns (C 18), EEC Directive 79/831 Annex V.A8. The data set is classed as physicochemical. The conditions noted are these: for chromatographic logP: reversed-phase C18 HPLC column, read-out: log P. The text has this: [table] The calibration is effected with unbranched alkan-2-ones (having 3 to 16 carbon atoms) with known logP values (logP values determined on the basis of the retention times by linear interpolation between two successive alkanones).

The subject of data set [2] is green peach aphid (Myzus persicae). As to the kind of experiment: Myzus test (MYZUPE spray treatment). The data set is classed as in vivo. As to conditions: Chinese cabbage discs, after 6 days; for efficacy: 500 g/ha; for pest or weed control at 500 g/ha: Myzus persicae, 144 h, read-out: efficacy. How it is done:
Myzus Test (MYZUPE Spray Treatment) Solvent: 78 parts by weight of acetone • • 1.5 parts by weight of dimethylformamide Emulsifier: 0.5 part by weight of alkylaryl polyglycol ether To prepare an appropriate active ingredient preparation, 1 part by weight of active ingredient is mixed with the stated amounts of solvent and emulsifier, and the concentrate is diluted with emulsifier-containing water to the desired concentration. Discs of Chinese cabbage (Brassica pekinensis) infested by all stages of the green peach aphid (Myzus persicae) are sprayed with an active ingredient preparation of the desired concentration. After 6 days, the efficacy in % is determined. 100% means that all of the aphids have been destroyed; 0% means that none of the aphids have been destroyed.

The subject of data set [3] is caterpillars of the armyworm (Spodoptera frugiperda). As to the kind of experiment: Spodoptera frugiperda test (SPODFR spray treatment). The data set is classed as in vivo. As to conditions: maize leaf discs, after 7 days; for pest or weed control at 500 g/ha: Spodoptera frugiperda, foliar, 168 h, read-out: efficacy; for efficacy: 500 g/ha. How it is done:
Spodoptera frugiperda Test (SPODFR Spray Treatment) Solvent: 78.0 parts by weight of acetone • • 1.5 parts by weight of dimethylformamide Emulsifier: 0.5 part by weight of alkylaryl polyglycol ether To prepare an appropriate active ingredient preparation, 1 part by weight of active ingredient is mixed with the stated amounts of solvent and emulsifier, and the concentrate is diluted with emulsifier-containing water to the desired concentration. Discs of maize leaves (Zea mays) are sprayed with an active ingredient preparation of the desired concentration and, after drying, populated with caterpillars of the armyworm (Spodoptera frugiperda). After 7 days, the efficacy in % is determined. 100% means that all caterpillars have been killed; 0% means that none of the caterpillars have been killed.

Data set [4] relates to larvae of the mustard beetle (Phaedon cochleariae). As to the kind of experiment: Phaedon test (PHAECO spray treatment). The data set is classed as in vivo. The conditions noted are these: Chinese cabbage discs, after 7 days; for pest or weed control at 500 g/ha: Phaedon cochleariae, 168 h, read-out: efficacy; for efficacy: 500 g/ha. How it is done: Phaedon Test ([…] Spray Treatment) Solvent: 78.0 parts by weight of acetone • • 1.5 parts by weight of dimethylformamide Emulsifier: 0.5 part by weight of alkylaryl polyglycol ether To prepare an appropriate active ingredient preparation, 1 part by weight of active ingredient is mixed with the stated amounts of solvent and emulsifier, and the concentrate is diluted with emulsifier-containing water to the desired concentration. Discs of Chinese cabbage (Brassica pekinensis) are sprayed with an active ingredient preparation of the desired concentration and, after drying, populated with larvae of the mustard beetle (Phaedon cochleariae). After 7 days, the efficacy in % is determined. 100% means that all beetle larvae have been killed; 0% means that none of the beetle larvae have been killed.

The test system of data set [5] is red spider mite (Tetranychus urticae). As to the kind of experiment: Tetranychus test, OP-resistant (TETRUR spray treatment). The conditions noted are these: 500 g/ha, bean leaf discs, after 6 days; for pest or weed control at 500 g/ha: Tetranychus urticae, foliar, 144 h, read-out: efficacy. It is filed as in vivo. As for the experimental part: Tetranychus Test, OP-Resistant (TETRUR Spray Treatment)
Solvent: 78.0 parts by weight of acetone • • 1.5 parts by weight of dimethylformamide
Emulsifier: 0.5 part by weight of alkylaryl polyglycol ether
To prepare an appropriate active ingredient preparation, 1 part by weight of active ingredient is mixed with the stated amounts of solvent and emulsifier, and the concentrate is diluted with emulsifier-containing water to the desired concentration. Discs of bean leaves (Phaseolus vulgaris) infested by all stages of the red spider mite (Tetranychus urticae) are sprayed with an active ingredient preparation of the desired concentration. After 6 days, the efficacy in % is determined. 100% means that all spider mites have been killed; 0% means that none of the spider mites have been killed.

In another data set the test system is Boophilus microplus. As to the kind of experiment: Boophilus microplus test (BOOPMI injection). The data set is classed as in vivo. The conditions noted are these: 20 μg animal; injection into the abdomen; after 7 days, laying of fertile eggs. How it is done:
Boophilus microplus Test (BOOPMI Injection) Solvent: dimethyl sulphoxide To prepare an appropriate active ingredient formulation, 10 mg of active ingredient are mixed with 0.5 ml of solvent and the concentrate is diluted with solvent to the desired concentration. The active ingredient solution is injected into the abdomen (Boophilus microplus), and the animals are transferred into dishes and stored in a climate-controlled room. The efficacy is assessed by laying of fertile eggs. After 7 days, the efficacy in % is determined. 100% means that none of the ticks has laid any fertile eggs.

Where [6] appears, read: * LC-MS, acidic range pH 2.7, 0.1% aqueous formic acid and acetonitrile.
The mark [7] stands for this setting: pH 2.7, * LC-MS, acidic range pH 2.7, 0.1% aqueous formic acid and acetonitrile.

`CCOc1nccnc1-n1nc(C(F)(F)F)c(-c2cc(Cl)cc(C(F)(F)F)c2)c1N(Cc1ccccc1)Cc1ccccc1` [Ex. 34]: the “log P” value in data set [1] (setting [6]) is recorded as 7*.

For `COc1nccnc1-n1nc(C(F)(F)F)c(-c2ccccc2I)c1N` [Ex. 138], the chromatographic logP in data set [1] (setting [7]) was 3.09.

With `C=CCN(CC=C)c1c(-c2cc(Cl)cc(C(F)(F)F)c2)c(C(F)(F)F)nn1-c1nccnc1OC` [Ex. 103], the efficacy in data set [2] turned out to be 80%.

`COc1nccnc1-n1nc(C(F)(F)F)c(-c2cc(Cl)c(Cl)c(Cl)c2)c1N` [Ex. 87]: the chromatographic logP in data set [1] (setting [7]) was found to be 4.35. The pest or weed control at 500 g/ha in data set [3] and in data set [4] was 100% each time.

`COc1nccnc1-n1nc(C(F)(F)F)c(-c2cc(F)c3c(c2)OCO3)c1N` [Ex. 174]: the pest or weed control at 500 g/ha in data set [5], in data set [2], in data set [3] and in data set [4] was 100% throughout. The chromatographic logP in data set [1] (setting [7]) amounted to 2.91.

As for `COc1nccnc1-n1nc(C(C)(C)F)c(-c2cc(Cl)cc(Cl)c2)c1N` [Ex. 168], the efficacy in data set [5], in data set [2], in data set [3] and in data set [4] was 100% each time.

For the molecule `COc1nccnc1-n1nc(C(F)(F)F)c(-c2ncc(Cl)cc2Cl)c1N` [Ex. 52], the chromatographic logP in data set [1] (setting [7]) worked out at 2.94. In data set [4], the pest or weed control at 500 g/ha is 100%.

Regarding `COc1nccnc1-n1nc(C(F)(F)F)c(-c2cc(C#N)c3c(c2)OCO3)c1N` [Ex. 150], the pest or weed control at 500 g/ha in data set [5], in data set [2], in data set [3] and in data set [4] was 100% in each case. Also, the chromatographic logP in data set [1] (setting [7]) was determined as 2.66.

As to `COc1nccnc1-n1nc(C(F)(F)F)c(-c2cc(Cl)cc(C(F)(F)F)c2)c1NCc1ccccc1` [Ex. 33], the values for the efficacy in data set [5], in data set [2] and in data set [4] were 90%, 80% and 100%, respectively.

For `COc1nccnc1-n1nc(C(F)(F)F)c(-c2cccnc2Cl)c1N` [Ex. 57], the chromatographic logP in data set [1] (setting [7]) came out at 2.19.

Regarding `COc1nccnc1-n1nc(C(F)(F)F)c(-c2cc(F)c(OC)c(Cl)c2)c1N` [Ex. 124], the figures for the efficacy in data set [5], in data set [3] and in data set [4] were 90%, 100% and 100%, respectively. Further, the “log P” value in data set [1] (*** LC-MS, neutral range pH 7.8, 0.001 molar aqueous ammonium hydrogencarbonate and acetonitrile) was 3.5***;.

As for `COc1nccnc1-n1nc(C(F)(F)F)c(-c2cc(Cl)cc(C(F)(F)F)c2)c1N(C)C` [compound 107, 1-(3-methoxypyrazin-2-yl)-4-[3-chloro-5-(trifluoromethyl)phenyl]-3-(trifluoromethyl)-1H-pyrazole-5-dimethylamine], the “log P” value in data set [1] (setting [6]) is reported as 5.11*. This molecule registered an efficacy in data set [4] of 83%.

Regarding `CCc1nn(-c2nccnc2OC)c(N)c1-c1cc(Cl)c(OC)c(OC)c1` [Ex. 161], the chromatographic logP in data set [1] (setting [7]) came out at 2.66. In addition, the pest or weed control at 500 g/ha in data set [3] and in data set [4] was 100% each time.

Consider `CSc1nccnc1-n1nc(C(F)(F)F)c(-c2cc(Cl)cc(C(F)(F)F)c2)c1N` [Ex. 28], for which the “log P” value in data set [1] (setting [6]) was 4.9*. For the same molecule, the efficacy (in data set [3]; in data set [4]; in the data set on Boophilus microplus) was 100% in each case.

With `CCCOc1nccnc1-n1nc(C(F)(F)F)c(-c2ccc(Br)cc2)c1N` [Ex. 4], the figures for the pest or weed control at 500 g/ha in data set [5] and in data set [4] were 90% and 83%, respectively. Moreover, in data set [1] (pH 2.3, ** acidic range pH 2.3, 0.1% aqueous phosphoric acid and acetonitrile), the chromatographic logP came to 4.11.

For the molecule `COc1ccc(-c2c(C(F)(F)F)nn(-c3nccnc3OC)c2N)c(Br)c1OC` [Ex. 128], in data set [1] (setting [7]), the chromatographic logP came to 2.87.

With `COc1nccnc1-n1nc(C(F)(F)C(F)(F)F)c(-c2ccc(Cl)nc2)c1N` [Ex. 58], in data set [1] (setting [7]), the chromatographic logP was 3.14.

`COc1nccnc1-n1nc(C(F)(F)F)c(-c2ccc(Cl)cn2)c1N` [Ex. 53]: the chromatographic logP in data set [1] (setting [7]) was 3.55.

On to `COc1nccnc1-n1nc(C(F)(F)F)c(-c2cncc(Br)c2)c1N` [Ex. 50], for which the chromatographic logP in data set [1] (setting [7]) stood at 2.62.

Turning to `CCOc1nccnc1-n1nc(CC)c(-c2cc(Br)c3c(c2)OCO3)c1N` [Ex. 177], the chromatographic logP in data set [1] (setting [7]) stood at 3.03.

As to `COc1cc(-c2c(C(F)(F)C(F)F)nn(-c3nccnc3OC)c2N)cc(C(F)(F)F)c1OC` [Ex. 157], the efficacy in data set [5], in data set [3] and in data set [4] was 100% in each case.

Consider `COc1cc(-c2c(C(F)(F)F)nn(-c3nccnc3OC)c2N)cc(I)c1OC` [Ex. 176], for which, in data set [1] (setting [6]), the “log P” value is listed as 3.87*.

Take `COc1nccnc1-n1nc(C(F)(F)F)c(-c2c(F)ccc(Cl)c2Cl)c1N` [Ex. 142]: the chromatographic logP in data set [1] (setting [7]) was 3.31. Moreover, the pest or weed control at 500 g/ha in data set [4] came out at 100%.

Consider `COc1nccnc1-n1nc(C(F)(F)F)c(-c2cc3c(cc2Cl)OCO3)c1N` [Ex. 143], for which, in data set [1] (setting [7]), the chromatographic logP came out at 2.86.

Consider `COc1nccnc1-n1nc(C(F)(F)C(F)F)c(-c2cc(Cl)c3c(c2)OCO3)c1N` [Ex. 65], for which the efficacy in data set [5] is 90%; in data set [3] it was 100%; in data set [4], 100%.

`COc1nccnc1-n1nc(C(F)(F)C(F)(F)F)c(-c2ccc(Cl)cn2)c1N` [Ex. 54]: the chromatographic logP in data set [1] (setting [7]) stood at 4.17.

Turning to `CCc1nn(-c2nccnc2OC)c(N)c1-c1cc(Br)c2c(c1)OCO2` [Ex. 178], the chromatographic logP in data set [1] (setting [7]) turned out to be 2.65.

For the molecule `COc1nccnc1-n1nc(C(F)(F)F)c(-c2ccccc2Br)c1N` [Ex. 137], the chromatographic logP in data set [1] (setting [7]) was found to be 3.

As to `CCC(OC)c1nn(-c2nccnc2OC)c(N)c1-c1ccc(Cl)c(Cl)c1` (stereo not drawn) [Ex. 3], the efficacy (in data set [5]; in data set [4]; in the data set on Boophilus microplus) was 100% in each case.

As for `COc1nccnc1-n1nc(C(F)(F)C(F)F)c(-c2cc(Cl)cc(C(F)(F)F)c2)c1N` [Ex. 59], the efficacy was determined as 100% in data set [5], 100% in data set [2], 83% in data set [3] and 100% in data set [4].

As to `COc1cc(-c2c(C(F)(F)F)nn(-c3nccnc3OC)c2N)cc(I)c1OC` [Ex. 147], the chromatographic logP in data set [1] (setting [7]) was determined as 3.47.

`COc1nccnc1-n1nc(C(F)(F)F)c(-c2ccccn2)c1N` [Ex. 49]: the chromatographic logP in data set [1] (setting [7]) came out at 2.59.

Regarding `CCOc1cc(-c2c(C(F)(F)F)nn(-c3nccnc3OC)c2N)cc(Br)c1OCC(F)(F)F` [Ex. 140], the “log P” value in data set [1] (setting [6]) is on record as 4.3*. For the same molecule, the efficacy in data set [3] and in data set [4] was 100% in each case.

For `C=C(C)c1nn(-c2nccnc2OC)c(N)c1-c1cc(Cl)cc(Cl)c1` [Ex. 167], the efficacy in data set [5], in data set [2] and in data set [4] was 100% each time.

Turning to `COc1nccnc1-n1nc(C2CC2)c(-c2cc(Cl)c3c(c2)OCO3)c1N` [Ex. 79], the chromatographic logP in data set [1] (setting [7]) amounted to 2.79. Also, the pest or weed control at 500 g/ha in data set [3] and in data set [4] was 100% throughout.
